From patent US7026487B2, “Amines substituted with a dihydronaphthalenyl, chromenyl, or thiochromenyl group, a pyridyl group and an alkyl group, having retinoid-like biological activity” (Allergan, Inc., priority 2000, dated 2006)

Legend:
RXRγ [1] = target: T1, RXRγ (UniProt P28705); test: holoreceptor transactivation assay, RXRγ; assay type: cell-based; details: NA = Not Active, read-out: RXR Trans. EC50 (nM) γ
T1 sequence (P28705 1-463): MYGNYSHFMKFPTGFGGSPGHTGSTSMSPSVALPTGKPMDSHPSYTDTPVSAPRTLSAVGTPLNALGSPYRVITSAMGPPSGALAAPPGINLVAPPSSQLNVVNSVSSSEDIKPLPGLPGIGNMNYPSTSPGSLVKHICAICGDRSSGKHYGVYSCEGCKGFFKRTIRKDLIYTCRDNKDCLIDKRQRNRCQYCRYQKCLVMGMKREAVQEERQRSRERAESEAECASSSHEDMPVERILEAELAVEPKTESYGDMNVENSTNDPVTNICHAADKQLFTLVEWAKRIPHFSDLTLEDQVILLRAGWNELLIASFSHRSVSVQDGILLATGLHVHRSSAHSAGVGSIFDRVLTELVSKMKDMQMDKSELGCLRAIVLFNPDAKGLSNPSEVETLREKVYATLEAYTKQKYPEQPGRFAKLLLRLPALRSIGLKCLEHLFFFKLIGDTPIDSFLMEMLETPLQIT
Text: (§2) The results obtained in this assay are expressed in EC50 numbers, as they are also in the chimeric receptor transactivation assay.

RXRβ [2] = target: T2, RXRβ (UniProt P28704); test: ligand binding assay, RXRβ; details: read-out: RXR Bind Ki (nM) β
T2 sequence (P28704 1-520): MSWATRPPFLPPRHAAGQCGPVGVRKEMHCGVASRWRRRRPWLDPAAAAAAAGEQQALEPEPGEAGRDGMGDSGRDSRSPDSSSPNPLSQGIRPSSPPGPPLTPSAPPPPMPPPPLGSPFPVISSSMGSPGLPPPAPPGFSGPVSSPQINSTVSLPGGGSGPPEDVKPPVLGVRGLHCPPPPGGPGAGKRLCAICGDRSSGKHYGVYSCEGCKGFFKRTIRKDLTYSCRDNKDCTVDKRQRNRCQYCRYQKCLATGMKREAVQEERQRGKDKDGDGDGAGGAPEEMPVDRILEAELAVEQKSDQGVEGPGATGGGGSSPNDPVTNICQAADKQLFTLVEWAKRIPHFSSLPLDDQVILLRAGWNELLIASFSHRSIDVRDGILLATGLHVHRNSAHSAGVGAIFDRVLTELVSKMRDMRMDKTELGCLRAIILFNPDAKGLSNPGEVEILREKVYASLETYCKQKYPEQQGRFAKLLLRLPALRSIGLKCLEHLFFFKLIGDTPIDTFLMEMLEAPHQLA
Text: (§3) The results obtained in this assay are expressed in EC50 numbers, as they are also in the chimeric receptor transactivation assay. The results of ligand binding assay are expressed in Kd numbers.
(§4) Particularly, the transactivation data pertaining to RAR receptors were obtained in the chimeric assay, and the data pertaining to transactivation of RXR receptors were obtained in the holoreceptor transactivation assay.

RXRγ [3] = target: T1, RXRγ; test: ligand binding assay, RXRγ; details: read-out: RXR Bind Ki (nM) γ
Text: as §3, §4

RXRβ [4] = target: T2, RXRβ; test: holoreceptor transactivation assay, RXRβ; assay type: cell-based; details: NA = Not Active, read-out: RXR Trans. EC50 (nM) β
Text: as §2

RARβ = RARβ (Homo sapiens, UniProt P10826); test: chimeric receptor transactivation assay, RARβ; assay type: cell-based; details: NA = Not Active, read-out: RAR Trans. EC50 (nM) β
Chain of RARβ (P19793 whole entry): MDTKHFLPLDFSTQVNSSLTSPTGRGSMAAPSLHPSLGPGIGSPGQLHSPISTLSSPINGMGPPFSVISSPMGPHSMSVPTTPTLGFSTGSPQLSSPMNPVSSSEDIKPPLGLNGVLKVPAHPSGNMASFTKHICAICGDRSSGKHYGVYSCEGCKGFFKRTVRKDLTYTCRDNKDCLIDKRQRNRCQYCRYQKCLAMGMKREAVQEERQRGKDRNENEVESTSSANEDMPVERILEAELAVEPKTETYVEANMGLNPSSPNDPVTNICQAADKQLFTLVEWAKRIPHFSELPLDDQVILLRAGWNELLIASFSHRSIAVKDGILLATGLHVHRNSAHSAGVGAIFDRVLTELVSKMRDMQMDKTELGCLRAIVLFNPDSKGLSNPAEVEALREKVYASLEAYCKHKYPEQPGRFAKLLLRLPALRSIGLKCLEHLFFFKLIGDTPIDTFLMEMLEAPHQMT
Chain of RARβ (P10826 154-455): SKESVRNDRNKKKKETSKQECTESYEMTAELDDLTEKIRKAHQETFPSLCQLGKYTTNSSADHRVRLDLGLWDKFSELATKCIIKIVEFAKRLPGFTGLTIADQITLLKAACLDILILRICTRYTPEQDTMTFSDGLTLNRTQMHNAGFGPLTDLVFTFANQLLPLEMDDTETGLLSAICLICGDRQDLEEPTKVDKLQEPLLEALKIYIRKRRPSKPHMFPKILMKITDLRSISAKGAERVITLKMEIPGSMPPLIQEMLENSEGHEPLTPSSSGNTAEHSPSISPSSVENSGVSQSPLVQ
Text: (§1) The specification of U.S. Pat. No. 5,455,265 is hereby expressly incorporated by reference.

RARγ = RARγ (Homo sapiens, UniProt P13631); test: chimeric receptor transactivation assay, RARγ; assay type: cell-based; details: NA = Not Active, read-out: RAR Trans. EC50 (nM) γ
Chain of RARγ (P13631 whole entry): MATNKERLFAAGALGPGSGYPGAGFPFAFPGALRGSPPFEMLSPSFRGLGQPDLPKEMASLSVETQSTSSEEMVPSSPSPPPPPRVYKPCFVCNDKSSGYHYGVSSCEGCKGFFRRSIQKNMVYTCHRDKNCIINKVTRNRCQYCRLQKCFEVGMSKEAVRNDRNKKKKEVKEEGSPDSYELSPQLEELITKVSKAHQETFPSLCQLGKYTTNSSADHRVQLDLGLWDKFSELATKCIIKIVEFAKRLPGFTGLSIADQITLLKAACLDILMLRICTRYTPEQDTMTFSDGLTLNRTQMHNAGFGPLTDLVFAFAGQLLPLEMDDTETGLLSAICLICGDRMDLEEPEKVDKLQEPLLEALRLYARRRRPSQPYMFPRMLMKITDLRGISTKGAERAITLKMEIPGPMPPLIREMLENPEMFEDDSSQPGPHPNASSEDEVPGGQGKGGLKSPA
Chain of RARγ (P19793 whole entry, further chain): as the sequence (P19793 whole entry) above
Text: as §1

Ki (RXRβ [2]) [nM]	EC50 (RXRβ [4]) [nM]	SMILES	also measured
> 1000		CC1=CCC(C)(C)c2cc(N(C)c3ccc(C(=O)O)cc3)ccc21 [Compound 67, 4-[Methyl-(5,8,8-trimethyl-7,8-dihydro-naphthalen-2-yl)-amino]-benzoic acid]	
> 1000		CC1=CCC(C)(C)c2cc(N(CC3CC3)c3ccc(C(=O)O)cc3)c(C)cc21 [Compound 47, 4-[Cyclopropylmethyl(3,5,8,8-tetramethyl-7,8-dihydronaphthalen-2-yl)amino]benzoic acid]	
	> 1000	Cc1cc2c(cc1N(C)c1ccc(C(=O)O)cc1)C(C)(C)CC=C2C(C)C [Compound 52, 4-[Methyl-(5-isopropyl-3,8,8-trimethyl-7,8-dihydronaphthalen-2-yl)amino]benzoic acid]	
> 1000	> 1000	CCCN(c1ccc(C(=O)O)cc1)c1cc2c(cc1C)C(C(C)C)=CCC2(C)C [Compound 54, 4-[n-Propyl-(5-isopropyl-3,8,8-trimethyl-7,8-dihydronaphthalen-2-yl)lamino]benzoic acid]	

The next lines start with the molecule.

SMILES	Ki (RXRβ [2]) [nM]	EC50 (RXRβ [4]) [nM]	also measured
CC1=CCC(C)(C)c2cc(N(C)c3ccc(C(=O)O)cc3)c(C)cc21 [Compound 44, 4-[Methyl(3,5,8,8-tetramethyl-7,8-dihydronaphthalen-2-yl)amino]benzoic acid]	> 1000		EC50 (RXRγ [1]): > 1000 nM; Ki (RXRγ [3]): > 1000 nM
CCCN(c1ccc(C(=O)O)cc1)c1cc2c(cc1C)C(C)=CCC2(C)C [Compound 46, 4-[n-Propyl(3,5,8,8-tetramethyl-7,8-dihydronaphthalen-2-yl)amino]benzoic acid]	> 10000	> 1000	Ki (RXRγ [3]): > 10000 nM
CCCCCCOc1cc2c(cc1N(CCC)c1ccc(C(=O)O)cc1)C(C)=CCC2(C)C [Compound 145, 4-[(3-n-Hexyloxy-5,5,8-trimethyl-5,6-dihydronaphthalen-2-yl)-n-propylamino]benzoic acid]			EC50 (RXRγ [1]): > 1000 nM
CCN(c1ccc(C(=O)O)cc1)c1cc2c(cc1C)C(C(C)C)=CCC2(C)C [Compound 53]	> 1000	> 1000	
C=CCN(c1ccc(C(=O)O)cc1)c1ccc2c(c1)C(C(C)(C)C)=CCC2(C)C [Compound 90, 4-[(8-t-Butyl-5,5-dimethyl-5,6-dihydronaphthalen-2-yl)(prop-2-en-yl)lamino]-benzoic acid]			EC50 (RARβ): > 1000 nM; EC50 (RARγ): > 1000 nM
CCCN(c1ccc(C(=O)O)cc1)c1cc2c(cc1OCc1ccccc1)C(C)(C)CC=C2C(C)C [Compound 157]			EC50 (RARβ): > 1000 nM
CCN(c1ccc(C(=O)O)cc1)c1cc2c(cc1C)C(C)=CCC2(C)C [Compound 45, 4-[Ethyl(3,5,8,8-tetramethyl-7,8-dihydronaphthalen-2-yl)amino]benzoic acid]	> 1000		EC50 (RXRγ [1]): > 1000 nM; Ki (RXRγ [3]): > 1000 nM
